Data reported in patent US20230295293A1, “BINDING MOLECULES AGAINST FRa” (AstraZeneca AB, priority 2022, published 2023).

Columns and labels:
Type in all cases: in vivo, mouse
[1] = test system: OVO857_CIS ("OVO0875") ovarian PDX; assay: OVO857_CIS ovarian PDX model; conditions: for Tumor growth inhibition (TGI %): OVO857 PDX; for Mean Tumor volume (mm^3) ± SEM / TGI (%): OVO875 ovarian cancer PDX
Protocol: (§1) In-house in vivo patient derived xenograft (PDX) efficacy studies were conducted using 2 different ovarian PDX models, OVO857_CIS (“OVO0875”) and CTG3226. 6-8-week-old female NSG (NOD-SCID IL2Rgamma^null) as seed mice were implanted subcutaneously with tumor tissue fragments. When sufficient seed animals reached 1000-1500 mm^3, tumors were harvested, and fragments were implanted into study animals. When tumor volume reached approximately 150-250 mm^3, mice were randomly assigned into different groups (n=3 mice per group). One group received no treatment. Four groups were administered intravenously 10, 5, 2.5 and 1.25 mg/kg AB1370049-SG3932 DAR8 respectively. Two groups were administered intravenously 5 and 2.5 mg/kg FRα-DM4 ADC (“biosimilar to mirvetuximab soravtansine”, with a DAR of about 3) respectively. All dosed animals received drug intravenously as a single dose at 10 ml/kg, on day 39 for OVO857_CIS and day 46 for CTG3226 PDX models.
(§2) Tumor volumes were measured by digital caliper and the volumes of tumors were calculated using the following formula: tumor volume=[length (mm)×width (mm)^2×0.52, where the length and width are the longest and shortest diameters of the tumor, respectively. Body weights were measured twice weekly to assess tolerability of the treatments.
(§3) The growth of tumors in each experimental group was expressed as the mean tumor volume (mm^3)±SEM of the number of animals used.
(§4) Tumor growth inhibition (TGI) was calculated by comparing each treatment group to the untreated control group. Percentage inhibition was calculated from the group means using the following formula: […]
(§5) Where C is mean tumor volume of untreated control group and T is mean tumor volume of treated groups.

CTG3226 ovarian PDX = CTG3226 ovarian PDX model; conditions: for Tumor growth inhibition (TGI %): CTG3226 PDX; for Mean Tumor volume (mm^3) ± SEM / TGI (%): CTG3226 ovarian cancer PDX
Protocol: as §1, §2, §3, §4, §5

[2] = test system: FRα-DM4-resistant OVCAR-3 tumors; assay: FRα-DM4-resistant OVCAR3 xenograft model; conditions: FRα-DM4 resistant OVCAR3 tumors re-implanted in new host mice; two doses (Q2W) of 5 mg/kg
Protocol: To develop the OVCAR3 xenograft model, 10×10^6 cells/mouse in 50% Matrigel were inoculated subcutaneously into female 6-8-week-old female NSG (NOD-SCID IL2Rgamma^null). When tumour volume reached within the range of 200-600 mm^3, mice were dosed intravenously with FRα-DM4 ADC (“biosimilar to mirvetuximab soravtansine”, with a DAR of about 3) at 5 mg/kg, once every 2 weeks (Q2W) continuously until tumours relapsed and began to grow in size again. Among mice relapsed after 8 rounds of Q2W dosing, 4 mice were selected and re-challenged with AB1370049-SG3932 DAR8 intravenously at 5 mg/kg Q2W, receiving 2 rounds of AB1370049-SG3932 DAR8 treatment.
Separately, relapsed tumor from an additional mouse was excised and re-implanted subcutaneously into female 6-8-week-old female NSG (NOD-SCID IL2Rgamma^null) mice. […]
as §2, with “(mm)× width” for “(mm)×width”
as §3

FRα-DM4 ADC: "biosimilar to mirvetuximab soravtansine", with a DAR of about 3
Tumor growth inhibition (TGI %) ([1]; single iv dose 2.5 mg/kg): 2% | Tumor growth inhibition (TGI %) ([1]; single iv dose 5 mg/kg): 24% | Mean Tumor volume (mm^3) ± SEM ([1]; single iv dose 2.5 mg/kg): 1882.00 ± 199.43 mm^3 | TGI (%) ([1]; single iv dose 2.5 mg/kg): 2.40% | Mean Tumor volume (mm^3) ± SEM ([1]; single iv dose 5 mg/kg): 1457.15 ± 250.01 mm^3 | TGI (%) ([1]; single iv dose 5 mg/kg): 24.43% | Tumor growth inhibition (TGI %) (CTG3226 ovarian PDX; single iv dose 2.5 mg/kg): no activity | Tumor growth inhibition (TGI %) (CTG3226 ovarian PDX; single iv dose 5 mg/kg): 76.5% | Mean Tumor volume (mm^3) ± SEM (CTG3226 ovarian PDX; single iv dose 2.5 mg/kg): 1127.58 ± 481.10 mm^3 | TGI (%) (CTG3226 ovarian PDX; single iv dose 2.5 mg/kg): −16.66% | Mean Tumor volume (mm^3) ± SEM (CTG3226 ovarian PDX; single iv dose 5 mg/kg): 226.86 ± 46.03 mm^3 | TGI (%) (CTG3226 ovarian PDX; single iv dose 5 mg/kg): 76.53% | TGI (%) [2]: still resistant to the treatment
